Experimental data reported in patent US20030186967A1, “Acylresorcinol derivatives are selective vitronectin receptor inhibitors” (American Home Products Corporation, priority 1998, published 2003).
pIC50: −log10 of the molar value. Each block holds one compound with its values, some of them ahead of it.

Biological target: T1, Vitronectin receptor αVβ3 (Homo sapiens, UniProt P05106+P06756)
T1 construct: expressed in transfected cells; host or cells: 512P5 cells (plasma membrane preparation)
Experiment: Vitronectin Receptor αVβ3 Binding Assay
Details: read-out: VnR (IC50μM)

T1 sequence (P06756 31-889 limits assumed): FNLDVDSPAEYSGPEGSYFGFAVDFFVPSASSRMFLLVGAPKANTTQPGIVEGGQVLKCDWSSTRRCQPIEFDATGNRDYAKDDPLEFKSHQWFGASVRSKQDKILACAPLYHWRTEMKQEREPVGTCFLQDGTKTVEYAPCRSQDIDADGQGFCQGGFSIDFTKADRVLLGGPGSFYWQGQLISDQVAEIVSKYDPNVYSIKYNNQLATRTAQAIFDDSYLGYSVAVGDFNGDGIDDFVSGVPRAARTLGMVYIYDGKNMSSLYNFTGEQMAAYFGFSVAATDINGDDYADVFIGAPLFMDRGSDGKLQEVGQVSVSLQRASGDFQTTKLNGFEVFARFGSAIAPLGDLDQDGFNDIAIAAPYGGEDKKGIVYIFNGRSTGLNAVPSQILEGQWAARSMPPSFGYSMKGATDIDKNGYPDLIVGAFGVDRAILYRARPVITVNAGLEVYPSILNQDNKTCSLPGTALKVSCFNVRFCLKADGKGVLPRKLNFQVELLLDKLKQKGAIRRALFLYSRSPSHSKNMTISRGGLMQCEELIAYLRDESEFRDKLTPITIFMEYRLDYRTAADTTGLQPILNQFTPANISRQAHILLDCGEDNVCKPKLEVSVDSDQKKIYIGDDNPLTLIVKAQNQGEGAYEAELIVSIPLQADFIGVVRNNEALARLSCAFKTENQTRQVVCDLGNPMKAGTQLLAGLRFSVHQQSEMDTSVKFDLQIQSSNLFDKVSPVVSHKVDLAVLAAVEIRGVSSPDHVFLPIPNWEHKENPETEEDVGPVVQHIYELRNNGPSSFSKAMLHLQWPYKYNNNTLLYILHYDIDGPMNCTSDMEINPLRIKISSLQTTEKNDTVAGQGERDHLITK
T1 sequence (P06756 891-1048 partner limits assumed): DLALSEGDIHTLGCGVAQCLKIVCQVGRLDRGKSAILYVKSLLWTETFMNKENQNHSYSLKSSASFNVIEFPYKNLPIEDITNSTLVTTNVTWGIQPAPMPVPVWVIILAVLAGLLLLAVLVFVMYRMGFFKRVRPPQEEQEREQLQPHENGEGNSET
T1 sequence (P05106 27-788): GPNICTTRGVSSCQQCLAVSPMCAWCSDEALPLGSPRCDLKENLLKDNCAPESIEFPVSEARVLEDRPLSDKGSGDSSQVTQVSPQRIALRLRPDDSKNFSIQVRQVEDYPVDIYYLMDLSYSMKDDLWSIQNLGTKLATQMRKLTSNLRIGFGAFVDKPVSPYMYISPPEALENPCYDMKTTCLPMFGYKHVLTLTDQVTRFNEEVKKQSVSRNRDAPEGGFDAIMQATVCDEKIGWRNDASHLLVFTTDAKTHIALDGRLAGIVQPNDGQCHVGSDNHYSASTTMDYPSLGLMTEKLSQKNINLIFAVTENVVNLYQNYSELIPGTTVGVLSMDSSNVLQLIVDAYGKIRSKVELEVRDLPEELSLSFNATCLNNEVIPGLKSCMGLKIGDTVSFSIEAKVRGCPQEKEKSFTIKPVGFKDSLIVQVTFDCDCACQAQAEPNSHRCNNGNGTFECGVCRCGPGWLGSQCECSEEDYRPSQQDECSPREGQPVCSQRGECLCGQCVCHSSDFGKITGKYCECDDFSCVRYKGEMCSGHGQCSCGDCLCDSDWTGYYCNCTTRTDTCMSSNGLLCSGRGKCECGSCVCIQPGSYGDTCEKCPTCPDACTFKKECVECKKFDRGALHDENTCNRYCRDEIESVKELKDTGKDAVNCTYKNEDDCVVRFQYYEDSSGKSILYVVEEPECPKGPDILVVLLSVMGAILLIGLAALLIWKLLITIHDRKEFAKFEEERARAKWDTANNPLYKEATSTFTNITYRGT

SMILES: CC(C)(C)COC(=O)N[C@@H](CNC(=O)c1ccc(OCCNC2=NCCCN2)cc1O)C(=O)O [Example 1, (2S)-3-({2-hydroxy-4-[2-(1,4,5,6-tetrahydropyrimidin-2-ylamino)ethoxy]benzoyl}amino)-2-{[(neopentyloxy)carbonyl]amino}propanoic acid]
- pIC50: 7.62

SMILES: COC(=O)N[C@@H](CNC(=O)c1ccc(OCCNC2=NCCCN2)cc1O)C(=O)O [Example 2, (2S)-3-({2-hydroxy-4-[2-(1,4,5,6-tetrahydropyrimidin-2-ylamino)ethoxy]benzoyl}-amino)-2-[(methoxycarbonyl)amino]propanoic acid]
- pIC50: 6.73

SMILES: CCOC(=O)N[C@@H](CNC(=O)c1ccc(OCCNC2=NCCCN2)cc1O)C(=O)O [Example 3, (2S)-2-[(ethoxycarbonyl)amino]-3-({2-hydroxy-4-[2-(1,4,5,6-tetrahydropyrimidin-2ylamino)ethoxy]benzoyl}amino)propanoic acid]
- pIC50: 6.91

SMILES: CCCOC(=O)N[C@@H](CNC(=O)c1ccc(OCCNC2=NCCCN2)cc1O)C(=O)O [Example 4, (2S)-3-({2-hydroxy-4-[2-(1,4,5,6-tetrahydropyrimidin-2-ylamino)ethoxy]benzoyl}-amino)-2-[(propoxycarbonyl)amino]propanoic acid]
- pIC50: 7.02

SMILES: CC(C)OC(=O)N[C@@H](CNC(=O)c1ccc(OCCNC2=NCCCN2)cc1O)C(=O)O [Example 5, (2S)-3-({2-hydroxy-4-[2-(1,4,5,6-tetrahydropyrimidin-2-ylamino)ethoxy]benzoyl}-amino)-2-[(isopropoxycarbonyl)amino]propanoic acid]
- pIC50: 7.21

SMILES: C=CCOC(=O)N[C@@H](CNC(=O)c1ccc(OCCNC2=NCCCN2)cc1O)C(=O)O [Example 6, (2S)-2-{[(allyloxy)carbonyl]amino}-3-({2-hydroxy-4-[2-(1,4,5,6-tetrahydropyrimidin-2-ylamino)ethoxy]benzoyl}amino)propanoic acid]
- pIC50: 6.97

SMILES: C=CCCOC(=O)N[C@@H](CNC(=O)c1ccc(OCCNC2=NCCCN2)cc1O)C(=O)O [Example 7, (2S)-2-{[(but-3-enyloxy)carbonyl]amino}-3-({2-hydroxy-4-[2-(1,4,5,6-tetrahydropyrimidin-2-ylamino)ethoxy]benzoyl}amino)propanoic acid]
- pIC50: 7.04

SMILES: CCCCCCOC(=O)N[C@@H](CNC(=O)c1ccc(OCCNC2=NCCCN2)cc1O)C(=O)O [Example 8, (2S)-2-{[(hexyloxy)carbonyl]amino}-3-({2-hydroxy-4-[2-(1,4,5,6-tetrahydropyrimidin-2-ylamino)ethoxy]benzoyl}amino)propanoic acid]
- pIC50: < 6.00

SMILES: CCCCCCCCOC(=O)N[C@@H](CNC(=O)c1ccc(OCCNC2=NCCCN2)cc1O)C(=O)O [Example 9, (2S)-3-({2-hydroxy-4-[2-(1,4,5,6-tetrahydropyrimidin-2-ylamino)ethoxy]benzoyl}-amino)-2-{[(octyloxy)carbonyl]amino}propanoic acid]
- pIC50: 6.96

SMILES: O=C(N[C@@H](CNC(=O)c1ccc(OCCNC2=NCCCN2)cc1O)C(=O)O)OCC(Cl)(Cl)Cl [Example 10, (2S)-3-({2-hydroxy-4-[2-(1,4,5,6-tetrahydropyrimidin-2-ylamino)ethoxy]-benzoyl}amino)-2-{[(2,2,2-trichloroethoxy)carbonyl]amino}propanoic acid]
- pIC50: 7.21

SMILES: CCCCOC(=O)N[C@@H](CNC(=O)c1ccc(OCCNC2=NCCCN2)cc1O)C(=O)O [Example 11, (2S)-3-({2-hydroxy-4-[2-(1,4,5,6-tetrahydropyrimidin-2-ylamino)ethoxy]-benzoyl}amino)-2-[(butoxycarbonyl)amino]propanoic acid]
- pIC50: 7.16

SMILES: CC(C)COC(=O)N[C@@H](CNC(=O)c1ccc(OCCNC2=NCCCN2)cc1O)C(=O)O [Example 12, (2S)-3-({2-hydroxy-4-[2-(1,4,5,6-tetrahydropyrimidin-2-ylamino)ethoxy]benzoyl}-amino)-2-[(isobutoxycarbonyl)amino]propanoic acid]
- pIC50: 7.18

Other lines, results leading:

- pIC50: 6.74
SMILES: C#CCOC(=O)N[C@@H](CNC(=O)c1ccc(OCCNC2=NCCCN2)cc1O)C(=O)O [Example 13, (2S)-3-({2-hydroxy-4-[2-(1,4,5,6-tetrahydropyrimidin-2-ylamino)ethoxy]benzoyl}-amino)-2-{[(prop-2-ynyloxy)carbonyl]amino}propanoic acid]

- pIC50: 7.35
SMILES: O=C(N[C@@H](CNC(=O)c1ccc(OCCNC2=NCCCN2)cc1O)C(=O)O)OCc1ccccc1 [Example 14, (2S)-2-{[(benzyloxy)carbonyl]amino}-3-({2-hydroxy-4-[2-(1,4,5,6-tetrahydropyrimidin-2-ylamino)ethoxy]benzoyl}amino)propanoic acid]

- pIC50: 5.84
SMILES: O=C(Nc1ccccc1)N[C@@H](CNC(=O)c1ccc(OCCNC2=NCCCN2)cc1O)C(=O)O [Example 20, (2S)-2-[(anilinocarbonyl)amino]-3-({2-hydroxy-4-[2-(1,4,5,6-tetrahydropyrimidin-2-ylamino)ethoxy]benzoyl}amino)propanoic acid]

- pIC50: 5.82
SMILES: O=C(NC1CCCCC1)N[C@@H](CNC(=O)c1ccc(OCCNC2=NCCCN2)cc1O)C(=O)O [Example 21, (2S)-2-{[(cyclohexylamino)carbonyl]amino}-3-({2-hydroxy-4-[2-(1,4,5,6-tetrahydropyrimidin-2-ylamino)ethoxy]benzoyl}amino)propanoic acid]

- pIC50: 5.99
SMILES: Cc1ccc(NC(=O)N[C@@H](CNC(=O)c2ccc(OCCNC3=NCCCN3)cc2O)C(=O)O)cc1 [Example 23, (2S)-3-({2-hydroxy-4-[2-(1,4,5,6-tetrahydropyrimidin-2-ylamino)ethoxy]benzoyl}-amino)-2-[(4-toluidinocarbonyl)amino]propanoic acid]

- pIC50: 5.83
SMILES: Cc1ccccc1NC(=O)N[C@@H](CNC(=O)c1ccc(OCCNC2=NCCCN2)cc1O)C(=O)O [Example 24, (2S)-3-({2-hydroxy-4-[2-(1,4,5,6-tetrahydropyrimidin-2-ylamino)ethoxy]benzoyl}-amino)-2-[(2-toluidinocarbonyl)amino]propanoic acid]

- pIC50: 6.17
SMILES: COc1ccccc1NC(=O)N[C@@H](CNC(=O)c1ccc(OCCNC2=NCCCN2)cc1O)C(=O)O [Example 25, (2S)-3-({2-hydroxy-4-[2-(1,4,5,6-tetrahydropyrimidin-2-ylamino)ethoxy]benzoyl}-amino)-2-{[(2-methoxyanilino)carbonyl]amino}propanoic acid]

- pIC50: 6.48
SMILES: O=C(Nc1ccccc1Cl)N[C@@H](CNC(=O)c1ccc(OCCNC2=NCCCN2)cc1O)C(=O)O [Example 27, (2S)-2-{[(2-chloroanilino)carbonyl]amino}-3-({2-hydroxy-4-[2-(1,4,5,6-tetrahydropyrimidin-2-ylamino)ethoxy]benzoyl}amino)propanoic acid]

- pIC50: 6.80
SMILES: O=C(Nc1ccccc1Br)N[C@@H](CNC(=O)c1ccc(OCCNC2=NCCCN2)cc1O)C(=O)O [Example 28, (2S)-2-{[(2-bromoanilino)carbonyl]amino}-3-({2-hydroxy-4-[2-(1,4,5,6-tetrahydropyrimidin-2-ylamino)ethoxy]benzoyl}amino)propanoic acid]

- pIC50: 6.39
SMILES: O=C(Nc1ccccc1-c1ccccc1)N[C@@H](CNC(=O)c1ccc(OCCNC2=NCCCN2)cc1O)C(=O)O [Example 29, (2S)-2-{[([1,1′-biphenyl]-2-ylamino)carbonyl]amino}-3-({2-hydroxy-4-[2-(1,4,5,6-tetrahydropyrimidin-2-ylamino)ethoxy]benzoyl}amino)propanoic acid]
